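Compound exposure: 48 hours, 5 concentrations, 96-well plates. GI50 marks 50% less growth.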 Activity calls are given as the source filed them. Cut-off read from the data, not from the text of the source: active = GI50 up to about 1.1 µM and inactive = higher.
Legend:
Assay in all cases: DTP human tumour cell line panel, 48 h
A549 = test system: A549
HL-60 = test system: HL-60
HOP-92 = test system: HOP-92
HT-29 = test system: HT-29
KM12 = test system: KM12
M14 = test system: M14
NCI-H226 = test system: NCI-H226
NCI-H23 = test system: NCI-H23
OVCAR-3 = test system: OVCAR-3
OVCAR-8 = test system: OVCAR-8
RXF 393 = test system: RXF 393
SF-295 = test system: SF-295
SF-539 = test system: SF-539
SN12C = test system: SN12C
SNB-75 = test system: SNB-75
SR = test system: SR
SW-620 = test system: SW-620
T47D = test system: T47D
TK-10 = test system: TK-10
UO-31 = test system: UO-31

Measured: GI50

CCN(CC)CCNc1ccc2ncn3c4cc(OC)c(OC)c(O)c4c(=O)c1c23
inactive: A549 11.9 µM | HL-60 11 µM | HOP-92 1.61 µM | HT-29 3.8 µM | KM12 7 µM | M14 14.2 µM | NCI-H226 12.3 µM | NCI-H23 2.69 µM | OVCAR-3 13 µM | OVCAR-8 5.3 µM | RXF 393 1.36 µM | SF-295 10.4 µM | SF-539 9.06 µM | SN12C 6.47 µM | SNB-75 2.78 µM | SR 1.29 µM | SW-620 1.4 µM | T47D 21.8 µM | TK-10 13.8 µM | UO-31 12.3 µM

CCCCc1ccc(Nc2nc(Cl)c3c(ncn3C3CC(Oc4ccc(C)cc4)C(COc4ccc(C)cc4)O3)n2)cc1 (stereo not given)
inactive: A549 > 100 µM | HL-60 87.7 µM | HOP-92 > 100 µM | HT-29 > 100 µM | KM12 > 100 µM | M14 > 100 µM | NCI-H226 > 100 µM | NCI-H23 > 100 µM | OVCAR-3 > 100 µM | OVCAR-8 > 100 µM | RXF 393 > 100 µM | SF-295 > 100 µM | SF-539 61 µM | SN12C > 100 µM | SNB-75 22.8 µM | SR > 100 µM | SW-620 > 100 µM | T47D > 100 µM | TK-10 > 100 µM | UO-31 > 100 µM
